Experimental data reported in patent publication US6846496B1, “Treatment of osteoporosis” (Orion Corporation, priority 1999, dated 2005).
Where “and” joins values, the source holds several entries; their conditions need not be identical. Equal values may be shown once.

Test: Comparative clinical study: bone mineral density by dual-energy X-ray absorptiometry at vertebrae (L2-L4) and femoral neck
Format: in vivo, postmenopausal women
Conditions: 48 months; for increase in bone mineral density in the vertebrae (mean percentage change) / increase in bone mineral density in the femoral neck: all subjects; for increase in bone mineral density in the femoral neck (percentage change) / increase in bone mineral density in the vertebrae (mean change from baseline): osteopenic/osteoporotic subjects; for mean change from baseline in BMD in vertebrae: subjects with normal BMD at baseline
Description: The subjects used in the study were 419 postmenopausal women, aged 45 to 65 years. Eligible women had to be at least 3 years postmenopausal with normal gynecological findings, an intact uterus and a body mass index of 30 or less. Major medical exclusion criteria included endometrial hyperplasia and pathological mammography findings, prior hormone-dependent malignancies, severe thyroid diseases, and other criteria typical for HRT studies. Excessive smokers and alcohol abusers were excluded. Otherwise the women were not required to change their daily diet or other lifestyle habits for the study period.
Subjects were randomly assigned to six treatment groups to receive one tablet daily containing one of the following dose combinations: 1 mg or 2 mg of estradiolvalerate (E2V) combined to 2.5 mg or 5 mg of medroxyprogestrone acetate (MPA) (Indivina®, Orion Corporation, Espoo, Finland).
Groups changing from 1 mg E2V to 2 mg E2V irrespective of the MPA (Group I and II) were pooled together. Groups receiving 1 mg of E2V throughout the study irrespective of the MPA dose (Group V and VI) were pooled together. Also groups receiving 2 mg of E2V throughout the study irrespective of the MPA dose (Group III and IV) were pooled together. Pooling was considered justified since MPA is not expected to affect the response of estrogen on bone mineral density (BMD).
The bone mineral densities at the vertebrae and the hip were measured using dual-energy X-ray absorptiometry (DPX) at baseline, 6-, 12-, 24, 36- and 48-month follow-up visits, and at premature discontinuation. The BMD from the hip was measured by three separate measurements at the femur neck, Ward's triangle, major trochanter and BMD from the vertebrae was measured at L2-L4. In addition, the area and bone mineral content (BMC) of vertebrae L2-L4 were determined.
Results were further analysed to compare the effect varying dosages on BMD in groups that had either normal, osteopenic or osteoporotic BMD value at baseline. Subjects were classified as osteopenic if the BMD was 0.90 to 1.08 g/cm^2 in vertebrae (L2-L4) and 0.68 to 0.86 g/cm^2 in femoral neck (corresponds to T score between −1 and −2.5 in Finnish population). BMD was regarded as normal if the values were above 1.08 g/cm^2 in vertebrae and above 0.86 g/cm^2 in femoral neck. Values below 0.90 g/cm^2 in vertebrae and below 0.68 /cm^2 in femoral neck were considered as osteoporotic.

[1] = daily 1 mg E2V first 6 months then 2 mg E2V

CCCCC(=O)O[C@H]1CC[C@H]2[C@@H]3CCc4cc(O)ccc4[C@H]3CC[C@]12C [E2V, estradiol valerate]
increase in bone mineral density in the vertebrae (mean percentage change) (daily 1 mg E2V first 6 months then 2 mg E2V (Groups I+II pooled, with MPA)): 8.9% | increase in bone mineral density in the femoral neck [1]: 4.2% and 4.3% | increase in bone mineral density in the vertebrae (mean percentage change) (daily 1 mg E2V whole term (Groups V+VI pooled, with MPA)): 6.2% | increase in bone mineral density in the femoral neck (daily 1 mg E2V whole term): 2.9% | increase in bone mineral density in the vertebrae (mean percentage change) (daily 2 mg E2V whole term (Groups III+IV pooled, with MPA)): 7.4% | increase in bone mineral density in the femoral neck (daily 2 mg E2V whole term): 2.9% | increase in bone mineral density in the femoral neck (percentage change) [1]: 6.4% | increase in bone mineral density in the vertebrae (mean change from baseline) [1]: 9.4% | increase in bone mineral density in the femoral neck (percentage change) (daily 1 mg E2V whole term): 3.8% | increase in bone mineral density in the vertebrae (mean change from baseline) (daily 1 mg E2V whole term): 7.7% | increase in bone mineral density in the femoral neck (percentage change) (daily 2 mg E2V whole term): 3.5% | increase in bone mineral density in the vertebrae (mean change from baseline) (daily 2 mg E2V whole term): 7.3% | mean change from baseline in BMD in vertebrae [1]: 8.3% | mean change from baseline in BMD in vertebrae (daily 1 mg E2V whole term): 4.7% | mean change from baseline in BMD in vertebrae (daily 2 mg E2V whole term): 7.5%
